From ChEMBL document CHEMBL1208773, “Improving the permeability of the hydroxyethylamine BACE-1 inhibitors: structure-activity relationship of P2' substituents” (Bioorg Med Chem Lett, 2010)

Columns and labels:
[1] = Lipophilicity, log P of the compound; format: physicochemical; settings: octanol/water
[2] = Dissociation constant, pKa of the compound; format: physicochemical

SMILES: CC(=O)N[C@@H](Cc1cc(F)cc(F)c1)[C@H](O)CNC1(c2cccc(C3CCOC3)c2)CCCCC1 (some centres undefined)
- logP [1]: 4

SMILES: CC(=O)N[C@@H](Cc1cc(F)cc(F)c1)[C@H](O)CNC1(c2cccc(C(C)(C)C)c2)CCCCC1
- logP [1]: 4.8
- pKa [2]: 8.1

SMILES: CC(=O)N[C@@H](Cc1cc(F)cc(F)c1)[C@H](O)CNC1(c2cccc(C3CCCO3)c2)CCCCC1 (some centres undefined)
- logP [1]: 4
